# Test results from patent publication US8987250B2 (Gilead Sciences, Inc., priority 2012, dated 2015).
# Experiments:
# [1] = system: HIV-IIIb; assay: Test A: Antiviral Assay in MT4 Cells; type: cell-based; settings: Human immunodeficiency virus 1, IIIB, MT4, 120 h, Table 2; MT-4 cells infected with HIV-IIIb, 5 days of incubation, CellTiter-Glo; read-out: EC50
# How it was run: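 MT-4 cells pre-infected with HIV-IIIb (0.004 m.o.i.) at 37 °C, then exposed to 3-fold serial compound dilutions (10 concentrations, quadruplicate) in RPMI 1640/10% FBS. After 5 days at 37 °C, viability read by CellTiter-Glo luminescence.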
# [2] = system: human liver microsomes; assay: Test B: Metabolic Stability Assay with Human Liver Microsomes; type: in vitro ADME; settings: 1 uM compound, 1 mg/mL human liver microsomal proteins, 37° C., 0-60 minutes; half-life class
# Excerpt: Test B: Metabolic Stability Assay with Human Liver Microsomes
# Effective viral suppression in the HIV infected patient requires that the antiviral drug persists in the patient's body at concentrations exceeding the minimum concentration required to inhibit viral proliferation. One of the factors controlling the drug levels after dosing is metabolic conversion. The liver is one site of drug metabolism. Approximately 60% of marketed drugs are cleared by hepatic metabolism (McGinnity D F et al. (2004) Drug Metab Dispos 32; 1247-1253). Liver microsomes are subcellular fractions which contain membrane bound drug metabolising enzymes. Human liver microsomes provide a convenient and concentrated source of the key liver metabolic enzymes (e.g., cytochromes P450, UDP-glucuronosyltransferases, and many others) and can be used to predict the metabolic stability of drug candidates (e.g., agents).
# Cluster tubes containing 500 uL of 1 uM compound with 1 mg/mL human liver microsomal proteins (BD Biosciences, BD452117)/50 mM K-phosphate buffer pH7.4/NADPH regenerating system/and UDP-glucuronosyltransferase cofactors, were incubated on the Precision-2000 workstation at 37° C. for 0, 10, 25, 60 minutes. The reactions were quenched with 100 uL of 0.2% formic acid in 90% ACN; containing 50 nM of an internal standard. The samples were analyzed on LC/MS/MS instrument (Q-Trap). Metabolic stabilities in microsomal fractions and hepatocytes were determined by measuring the rate of disappearance of the compound. Data (% of parent remaining) were plotted on a semi logarithmic scale and fitted using an exponential fit.
Compound,EC50 [1],Human Microsomal stability [2]
"Cc1cc2nc(-c3ccc4c(c3)c(N3CCN(C)CC3)nn4C)sc2c(-c2ccc(Cl)cc2)c1[C@H](OC(C)(C)C)C(=O)O [Compound 257, (S)-2-tert-butoxy-2-(7-(4-chlorophenyl)-5-methyl-2-(1-methyl-3-(4-methylpiperazin-1-yl)-1H-indazol-5-yl)benzo[d]thiazol-6-yl)acetic acid]",5 nM,A (a human microsomal stability half-life of greater than or equal to 300 minutes)
"Cc1cc2nc(N3CCN(C)C(c4ccc5c(cnn5C)c4)C3)sc2c(-c2ccc(Cl)cc2)c1[C@H](OC(C)(C)C)C(=O)O (stereo partly drawn) [Compound 278, (2S)-2-tert-butoxy-2-(7-(4-chlorophenyl)-5-methyl-2-(4-methyl-3-(1-methyl-1H-indazol-5-yl)piperazin-1-yl)benzo[d]thiazol-6-yl)acetic acid]",4 nM,B (a human microsomal stability half-life of less than 300 minutes but greater than or equal to 150 minutes)
"Cc1cc2nc(-c3ccnc(N4CC(N(C)C)C4)n3)sc2c(-c2ccc(Cl)cc2)c1[C@H](OC(C)(C)C)C(=O)O [Compound 333, (S)-2-tert-butoxy-2-(7-(4-chlorophenyl)-2-(2-(3-(dimethylamino)azetidin-1-yl)pyrimidin-4-yl)-5-methylbenzo[d]thiazol-6-yl)acetic acid]",3 nM,A (a human microsomal stability half-life of greater than or equal to 300 minutes)
"Cc1cc2nc(-c3ccnc(N4CCN(C5COC5)CC4)n3)sc2c(-c2ccc(Cl)cc2)c1[C@H](OC(C)(C)C)C(=O)O [Compound 336, (S)-2-tert-butoxy-2-(7-(4-chlorophenyl)-5-methyl-2-(2-(4-(oxetan-3-yl)piperazin-1-yl)pyrimidin-4-yl)benzo[d]thiazol-6-yl)acetic acid]",2 nM,A (a human microsomal stability half-life of greater than or equal to 300 minutes)
